Reference: ChEMBL document CHEMBL1201862, “PubChem BioAssay data set” (2004)
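Five compound concentrations were applied to cells in 96-well plates for 48 hours; endpoints were derived by simple linear interpolation of the resulting dose-response curve. GI50 marks 50% less growth.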 Calls of active or inactive are those of the source. Cut-off read from the data, not from the text of the source: active = GI50 up to about 1.1 µM and inactive = higher.

How the values were obtained:
Assay in all cases: NCI tumour cell line growth inhibition, 48 h
SF-539 = tested on: SF-539
MCF7 = tested on: MCF7
HCT-116 = tested on: HCT-116
NCI-H522 = tested on: NCI-H522
786-0 = tested on: 786-0
Hs-578T = tested on: Hs-578T
UO-31 = tested on: UO-31
RPMI-8226 = tested on: RPMI-8226
SF-295 = tested on: SF-295
MDA-N = tested on: MDA-N
OVCAR-5 = tested on: OVCAR-5
Malme-3M = tested on: Malme-3M
NCI-H226 = tested on: NCI-H226
SN12C = tested on: SN12C
DU-145 = tested on: DU-145
MOLT-4 = tested on: MOLT-4
OVCAR-4 = tested on: OVCAR-4
LOX IMVI = tested on: LOX IMVI
UACC-257 = tested on: UACC-257
CCRF-CEM = tested on: CCRF-CEM

Compound | GI50 (SF-539) | GI50 (MCF7) | GI50 (HCT-116) | GI50 (NCI-H522) | GI50 (786-0) | GI50 (Hs-578T) | GI50 (UO-31) | GI50 (RPMI-8226) | GI50 (SF-295) | GI50 (MDA-N) | GI50 (OVCAR-5) | GI50 (Malme-3M) | GI50 (NCI-H226) | GI50 (SN12C) | GI50 (DU-145) | GI50 (MOLT-4) | GI50 (OVCAR-4) | GI50 (LOX IMVI) | GI50 (UACC-257) | GI50 (CCRF-CEM)
COC[C@H]1C(=O)NCC(=O)N2N=CCC[C@H]2C(=O)N(O)[C@H](C)C(=O)O[C@@H](C(C)C)[C@H](NC(=O)[C@@](C)(O)[C@]2(O)CC[C@@H](CC(C)C)[C@H](C)O2)C(=O)N2NCCC[C@@H]2C(=O)N1O | 0.0172 µM (active) | 0.0168 µM (active) | 0.0134 µM (active) | 0.0178 µM (active) | 0.0174 µM (active) | 0.0179 µM (active) | 0.169 µM (active) | 0.0208 µM (active) | 0.0193 µM (active) | 0.018 µM (active) | 0.0178 µM (active) | 0.0171 µM (active) | 0.0197 µM (active) | 0.0185 µM (active) | 0.0343 µM (active) | 0.0164 µM (active) | 0.0168 µM (active) | 0.0178 µM (active) | 0.0184 µM (active) | 0.0216 µM (active)
C/C(=N\NC(N)=S)c1sc(-n2nc(-c3ccccc3)cc2-c2ccccc2)nc1C | > 100 µM (inactive) | 51.6 µM (inactive) | 55.8 µM (inactive) | 79.4 µM (inactive) | > 100 µM (inactive) | > 100 µM (inactive) | 69.7 µM (inactive) | 16.9 µM (inactive) | > 100 µM (inactive) | > 100 µM (inactive) | > 100 µM (inactive) | > 100 µM (inactive) | > 100 µM (inactive) | > 100 µM (inactive) | > 100 µM (inactive) | 27.9 µM (inactive) | 74.6 µM (inactive) | 71.9 µM (inactive) | 85.5 µM (inactive) | 36.5 µM (inactive)
CC(=O)C(CN1CCOCC1)C(c1ccccc1)c1c(O)c2ccccc2oc1=O (stereo not given) | > 100 µM (inactive) | > 100 µM (inactive) | > 100 µM (inactive) | > 100 µM (inactive) | > 100 µM (inactive) | > 100 µM (inactive) | > 100 µM (inactive) | 43.1 µM (inactive) | > 100 µM (inactive) | > 100 µM (inactive) | > 100 µM (inactive) | 80.9 µM (inactive) | > 100 µM (inactive) | > 100 µM (inactive) | > 100 µM (inactive) | > 100 µM (inactive) | > 100 µM (inactive) | > 100 µM (inactive) | > 100 µM (inactive) | > 100 µM (inactive)
CCC(C)C1NC(=O)C(NC(=O)c2c3nc4c(C(=O)NC5C(=O)NC(C(C)CC)C(=O)N6CCCC6C(=O)N(C)CC(=O)N(C)C(C(C)C)C(=O)OC5C)ccc(C)c4oc-3c(C)c(=O)c2O)C(C)OC(=O)C(C(C)C)N(C)C(=O)CN(C)C(=O)C2CCCN2C1=O (stereo not given) | 0.838 µM (active) | 1.11 µM (active) | 0.55 µM (active) | 0.295 µM (active) | 3.37 µM (inactive) | 4.49 µM (inactive) | 10.4 µM (inactive) | 0.902 µM (active) | 3.61 µM (inactive) | 4.21 µM (inactive) | 11.6 µM (inactive) | 1.98 µM (inactive) | 0.881 µM (active) | 1.17 µM (inactive) | 5.78 µM (inactive) | 1.01 µM (active) | 14.3 µM (inactive) | 0.532 µM (active) | 3.3 µM (inactive) | 0.499 µM (active)
Cn1c(=O)c2nc(CS(=O)(=O)Cc3nc4c(=O)n(C)c(=O)n(C)c4[nH]3)[nH]c2n(C)c1=O | > 100 µM (inactive) | 28.1 µM (inactive) | > 100 µM (inactive) | > 100 µM (inactive) | > 100 µM (inactive) | > 100 µM (inactive) | > 100 µM (inactive) | > 100 µM (inactive) | > 100 µM (inactive) | > 100 µM (inactive) | > 100 µM (inactive) | > 100 µM (inactive) | > 100 µM (inactive) | > 100 µM (inactive) | > 100 µM (inactive) | > 100 µM (inactive) | 43.1 µM (inactive) | > 100 µM (inactive) | > 100 µM (inactive) | > 100 µM (inactive)
Cc1cc(C)c(NC(=S)NC(=O)c2ccccc2)cc1C | > 100 µM (inactive) | 38.2 µM (inactive) | > 100 µM (inactive) | > 100 µM (inactive) | > 100 µM (inactive) | > 100 µM (inactive) | > 100 µM (inactive) | > 100 µM (inactive) | 34.4 µM (inactive) | 78.9 µM (inactive) | > 100 µM (inactive) | > 100 µM (inactive) | > 100 µM (inactive) | > 100 µM (inactive) | > 100 µM (inactive) | 93.5 µM (inactive) | 61.2 µM (inactive) | > 100 µM (inactive) | 84.7 µM (inactive) | > 100 µM (inactive)
